Measurements reported in patent US20260098026A1, “M4 ACTIVATORS/MODULATORS AND USES THEREOF” (Cerevel Therapeutics, LLC, priority 2022, published 2026).

Legend:
Assay type in all cases: cell-based
[1] = molecular target: T1, M3 muscarinic acetylcholine receptor (mAChR) (Homo sapiens, UniProt P20309); assay: FLIPR calcium assay (Fluo 8), M3-overexpressing CHO-K1 cells
T1 construct: expressed in transfected cells; host or cells: CHO-K1
Procedure, shortened: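 CHO-K1 cells overexpressing each human receptor seeded at 15,000 per well, grown overnight at 37° C., 5% CO2, then loaded with Fluo-8 for 30 min. Compounds in HBSS added and calcium response read on FLIPR; EC50 and Emax calculated per subtype.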

[2] = molecular target: T2, M5 muscarinic acetylcholine receptor (mAChR) (Homo sapiens, UniProt P08912); assay: FLIPR calcium assay (Fluo 8), M5-overexpressing CHO-K1 cells
T2 construct: expressed in transfected cells; host or cells: CHO-K1
T2 sequence (P08912 1-532): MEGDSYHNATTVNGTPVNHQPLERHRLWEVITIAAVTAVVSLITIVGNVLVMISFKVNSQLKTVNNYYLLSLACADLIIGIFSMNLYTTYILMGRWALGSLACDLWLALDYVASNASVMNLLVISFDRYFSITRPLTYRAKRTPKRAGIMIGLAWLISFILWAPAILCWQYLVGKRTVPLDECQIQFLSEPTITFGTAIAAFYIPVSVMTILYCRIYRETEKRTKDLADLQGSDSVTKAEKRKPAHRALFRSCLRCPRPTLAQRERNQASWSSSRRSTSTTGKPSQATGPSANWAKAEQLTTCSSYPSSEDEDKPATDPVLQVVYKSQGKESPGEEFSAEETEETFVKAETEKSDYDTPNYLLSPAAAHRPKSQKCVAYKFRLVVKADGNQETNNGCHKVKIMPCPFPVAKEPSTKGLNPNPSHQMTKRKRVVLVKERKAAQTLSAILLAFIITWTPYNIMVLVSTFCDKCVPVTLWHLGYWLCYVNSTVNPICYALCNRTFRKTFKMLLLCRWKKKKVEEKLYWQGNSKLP
Experimental: (§1) Stimulation of a Gq-coupled G-protein coupled receptors (GPCRs), result in an efflux of calcium from the endoplasmic reticulum to the cytoplasm (Berridge, 1993), thus rendering this assay appropriate for the assessment of M1, M3 and M5 receptors. CHO-K1 cells overexpressing the M1, M3, or M5 muscarinic acetylcholine receptor (mAChR) were dispensed at 15,000 cells per well in 30 μl volume to 384-well plates and grown overnight at 37° C. in a 5% CO2 atmosphere. Fluo-8 Solution, 10 μl per well, was added to each well and incubated for 30 minutes at 37° C. in a 5% CO2 atmosphere. Compounds diluted in Hanks' balanced salt solution (HBSS) were transferred to the cell assay plate at 10 μl per well, and then read on a FLIPR instrument. EC50 and Emax figures were calculated from the resulting data for each receptor subtype.

[3] = molecular target: T3, M4 mAChR (Homo sapiens, UniProt P08173); assay: cAMP TR-FRET assay with forskolin, M4-overexpressing CHO-K1 cells
T3 construct: expressed in transfected cells; host or cells: CHO-K1
T3 sequence (P08173 1-479): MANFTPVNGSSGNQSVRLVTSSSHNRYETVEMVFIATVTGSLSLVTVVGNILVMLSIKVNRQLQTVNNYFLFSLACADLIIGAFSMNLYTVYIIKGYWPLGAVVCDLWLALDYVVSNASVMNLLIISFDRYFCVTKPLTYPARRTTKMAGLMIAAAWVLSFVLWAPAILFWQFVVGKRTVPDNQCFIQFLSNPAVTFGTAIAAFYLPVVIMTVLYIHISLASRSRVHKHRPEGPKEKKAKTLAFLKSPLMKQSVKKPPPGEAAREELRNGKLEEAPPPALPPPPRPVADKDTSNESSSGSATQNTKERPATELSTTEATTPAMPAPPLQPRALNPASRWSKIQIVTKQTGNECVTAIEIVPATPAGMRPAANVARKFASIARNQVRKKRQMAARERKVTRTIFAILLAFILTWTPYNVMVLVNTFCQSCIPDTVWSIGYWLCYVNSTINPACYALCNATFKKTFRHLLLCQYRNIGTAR
Procedure, shortened: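 CHO-K1 cells overexpressing the receptor were stimulated with forskolin to raise cAMP, so that Gi-mediated agonist decreases could be measured. cAMP was quantified by TR-FRET competition between cellular cAMP and labelled donor for anti-cAMP antibody, giving potency and efficacy.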

[4] = molecular target: T4, M1 muscarinic acetylcholine receptor (mAChR) (Homo sapiens, UniProt P11229); assay: FLIPR calcium assay (Fluo 8), M1-overexpressing CHO-K1 cells
T4 construct: expressed in transfected cells; host or cells: CHO-K1
T4 sequence (P11229 1-460): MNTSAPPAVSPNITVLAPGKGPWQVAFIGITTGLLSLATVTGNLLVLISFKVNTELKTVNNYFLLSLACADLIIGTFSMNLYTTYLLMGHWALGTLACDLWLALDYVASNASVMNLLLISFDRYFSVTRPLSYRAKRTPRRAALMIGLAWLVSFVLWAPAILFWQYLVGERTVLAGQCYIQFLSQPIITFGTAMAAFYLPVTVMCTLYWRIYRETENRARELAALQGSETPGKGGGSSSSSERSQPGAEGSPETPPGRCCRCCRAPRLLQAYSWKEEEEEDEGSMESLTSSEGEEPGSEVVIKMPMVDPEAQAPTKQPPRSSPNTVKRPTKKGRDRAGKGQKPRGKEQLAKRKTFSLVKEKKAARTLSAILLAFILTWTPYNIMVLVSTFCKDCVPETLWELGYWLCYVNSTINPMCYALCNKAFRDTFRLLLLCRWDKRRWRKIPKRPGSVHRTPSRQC
Experimental: as §1

T1 sequence (P20309 whole entry): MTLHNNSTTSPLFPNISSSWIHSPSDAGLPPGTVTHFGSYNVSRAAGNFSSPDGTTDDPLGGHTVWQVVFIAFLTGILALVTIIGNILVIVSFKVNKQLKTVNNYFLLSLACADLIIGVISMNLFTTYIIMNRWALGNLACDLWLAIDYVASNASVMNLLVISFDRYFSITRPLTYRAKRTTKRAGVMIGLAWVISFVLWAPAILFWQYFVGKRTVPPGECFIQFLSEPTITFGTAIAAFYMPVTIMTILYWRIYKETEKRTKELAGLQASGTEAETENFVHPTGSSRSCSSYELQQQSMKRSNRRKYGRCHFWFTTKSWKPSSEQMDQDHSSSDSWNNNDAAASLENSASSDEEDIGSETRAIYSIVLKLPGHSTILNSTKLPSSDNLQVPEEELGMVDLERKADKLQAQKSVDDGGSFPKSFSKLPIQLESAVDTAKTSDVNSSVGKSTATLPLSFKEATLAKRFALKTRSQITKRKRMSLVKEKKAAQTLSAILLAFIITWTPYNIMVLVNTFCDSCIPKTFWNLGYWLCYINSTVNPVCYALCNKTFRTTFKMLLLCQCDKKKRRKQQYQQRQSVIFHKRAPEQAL

EC50 ([1]; FLIPR calcium) [µM]	Emax ([2]; FLIPR calcium) [%]	Emax ([3]; cAMP TR-FRET with forskolin) [%]	Emax ([4]; FLIPR calcium) [%]	Emax ([4]; FLIPR) [%]	EC50 ([1]; FLIPR) [µM]	Emax ([3]; cAMP assay) [%]	Emax ([2]; FLIPR) [%]	Compound
> 10	19 to 49.9	80 to 100	–	–	–	–	–	CCOC(=O)N1CC2(CC[C@@H](N3CCN(c4cccnc4-c4cncc(OC)c4)CC3)C2)C1 [Compound A1, ethyl (6R)-6-[4-[2-(5-methoxy-3-pyridyl)-3-pyridyl]piperazin-1-yl]-2-azaspiro[3.4]octane-2-carboxylate]
> 10	–	80 to 100	19 to 49.9	–	–	–	–	CCOC(=O)N1CC2(CC[C@@H](N3CCN(c4cc(F)cnc4-c4ccc(F)nc4)CC3)C2)C1 [Compound A2, ethyl (6R)-6-[4-[5-fluoro-2-(6-fluoro-3-pyridyl)-3-pyridyl]piperazin-1-yl]-2-azaspiro[3.4]octane-2-carboxylate]
> 10	–	–	19 to 49.9	–	–	–	–	CCOC(=O)N1CC2(CC[C@@H](N3CCN(c4cccnc4N4CCCC4)CC3)C2)C1 [Compound A3, ethyl (6R)-6-[4-(2-pyrrolidin-1-yl-3-pyridyl)piperazin-1-yl]-2-azaspiro[3.4]octane-2-carboxylate]
> 10	–	80 to 100	50 to 79.9	–	–	–	–	CCOC(=O)N1CC2(CC[C@@H](N3CCN(c4cc(F)cnc4-c4cccnc4OCC)CC3)C2)C1 [Compound A49]
> 10	–	80 to 100	19 to 49.9	–	–	–	–	CCOC(=O)N1CC2(CC[C@@H](N3CCN(c4cc(F)cnc4-c4cnc5c(c4)ncn5C)CC3)C2)C1 [Compound A51]
> 10	–	80 to 100	19 to 49.9	–	–	–	–	CCOC(=O)N1CC2(CC[C@@H](N3CCN(c4cc(F)cnc4-c4ccncc4)CC3)C2)C1 [Compound A53]
> 10	–	80 to 100	19 to 49.9	–	–	–	–	CCOC(=O)N1CC2(CC[C@@H](N3CCN(c4cc(F)cnc4-c4cncs4)CC3)C2)C1 [Compound A59]
> 10	19 to 49.9	80 to 100	19 to 49.9	–	–	–	–	CCOC(=O)N1CC2(CC[C@@H](N3CCN(c4cc(F)cnc4-c4cnc(SC)nc4)CC3)C2)C1 [Compound A63]
> 10	–	80 to 100	19 to 49.9	–	–	–	–	CCOC(=O)N1CC2(CC[C@@H](N3CCN(c4cc(F)cnc4-c4ccnn4C)CC3)C2)C1 [Compound A67]
> 10	–	80 to 100	19 to 49.9	–	–	–	–	CCOC(=O)N1CC2(CC[C@@H](N3CCN(c4cc(F)cnc4-c4cn/c(=N\C)[nH]c4)CC3)C2)C1 [Compound A70]
> 10	19 to 49.9	80 to 100	–	–	–	–	–	CCOC(=O)N1CC2(CC[C@@H](N3CCN(c4cc(F)cnc4-c4cnn(CC(C)C)c4)CC3)C2)C1 [Compound A71]
> 10	19 to 49.9	80 to 100	–	–	–	–	–	CCOC(=O)N1CC2(CC[C@@H](N3CCN(c4cc(F)cnc4-c4cnn(CC)c4)CC3)C2)C1 [Compound A74]
> 10	–	80 to 100	19 to 49.9	–	–	–	–	CCOC(=O)N1CC2(CC[C@@H](N3CCN(c4cc(F)cnc4-c4ccc(NC(C)=O)nc4)CC3)C2)C1 [Compound A75]
> 10	19 to 49.9	80 to 100	19 to 49.9	–	–	–	–	CCNc1ncc(-c2ncc(F)cc2N2CCN([C@@H]3CCC4(C3)CN(C(=O)OCC)C4)CC2)cn1 [Compound A80]
> 10	–	80 to 100	19 to 49.9	–	–	–	–	CCOC(=O)N1CC2(CC[C@@H](N3CCN(c4cc(F)cnc4-c4cncc(O)c4)CC3)C2)C1 [Compound A82]
> 10	–	80 to 100	19 to 49.9	–	–	–	–	CCOC(=O)N1CC2(CC[C@@H](N3CCN(c4cc(F)cnc4-c4cnc(NC(C)C)nc4)CC3)C2)C1 [Compound A87]

EC50 ([1]; FLIPR calcium) [µM]	Emax ([2]; FLIPR calcium) [%]	Emax ([3]; cAMP TR-FRET with forskolin) [%]	Emax ([4]; FLIPR calcium) [%]	Emax ([4]; FLIPR) [%]	EC50 ([1]; FLIPR) [µM]	Emax ([3]; cAMP assay) [%]	Emax ([2]; FLIPR) [%]	Compound
> 10	19 to 49.9	80 to 100	–	–	–	–	–	CCOC(=O)N1CC2(CC[C@@H](N3CCN(c4cc(F)cnc4-c4ccc(CO)o4)CC3)C2)C1 [Compound A91]
> 10	–	80 to 100	19 to 49.9	–	–	–	–	CCOC(=O)N1CC2(CC[C@@H](N3CCN(c4cc(F)cnc4-c4ccnn4CC)CC3)C2)C1 [Compound A93]
> 10	–	80 to 100	19 to 49.9	–	–	–	–	CCOC(=O)N1CC2(CC[C@@H](N3CCN(c4cc(F)cnc4-c4cnc5ccnn5c4)CC3)C2)C1 [Compound A100]
> 10	–	80 to 100	19 to 49.9	–	–	–	–	CCOC(=O)N1CC2(CC[C@@H](N3CCN(c4cc(F)cnc4-c4ccc(C(=O)NC)cc4)CC3)C2)C1 [Compound A103]
> 10	–	80 to 100	19 to 49.9	–	–	–	–	CCOC(=O)N1CC2(CC[C@@H](N3CCN(c4cc(F)cnc4-c4ccccc4O)CC3)C2)C1 [Compound A104]
> 10	–	80 to 100	19 to 49.9	–	–	–	–	CCOC(=O)N1CC2(CC[C@@H](N3CCN(c4cc(F)cnc4-c4cnoc4C)CC3)C2)C1 [Compound A113]
> 10	–	80 to 100	< 19	–	–	–	–	CCOC(=O)N1CC2(CC[C@@H](N3CCN(c4cc(F)cnc4-c4cnc(OC)c(F)c4)CC3)C2)C1 [Compound A139]
> 10	–	80 to 100	19 to 49.9	–	–	–	–	CCOC(=O)N1CC2(CC[C@@H](N3CCN(c4cc(F)cnc4-c4conc4C)CC3)C2)C1 [Compound A140]
> 10	–	80 to 100	19 to 49.9	–	–	–	–	CCOC(=O)N1CC2(CC[C@@H](N3CCN(c4cc(F)cnc4-c4cnc(OC)nc4)CC3)C2)C1 [Compound A146]
–	–	–	–	19 to 49.9	> 10	80 to 100	–	CCOC(=O)N1CC2(CC[C@@H](N3CCN(c4cc(F)cnc4-c4cnc(OC(C)C)nc4)CC3)C2)C1 [Compound A158]
–	–	–	–	–	> 10	80 to 100	19 to 49.9	CCOC(=O)N1CC2(CC[C@@H](N3CCN(c4cc(F)cnc4-c4cnc(O)c(C)c4)CC3)C2)C1 [Compound A166]
–	–	–	–	19 to 49.9	> 10	80 to 100	–	CCOC(=O)N1CC2(CC[C@@H](N3CCN(c4cc(F)cnc4-c4cnc(F)nc4)CC3)C2)C1 [Compound A184]
–	–	–	–	19 to 49.9	> 10	80 to 100	–	CCOC(=O)N1CC2(CC[C@@H](N3CCN(c4cc(F)cnc4-c4cnc(C)nc4)CC3)C2)C1 [Compound A185]
–	–	–	–	19 to 49.9	> 10	80 to 100	19 to 49.9	CCOC(=O)N1CC2(CC[C@@H](N3CCN(c4cc(F)cnc4-c4c[nH]c(=O)c(F)c4)CC3)C2)C1 [Compound A206]
–	–	–	–	50 to 79.9	> 10	80 to 100	19 to 49.9	CCOC(=O)N1CC2(CC[C@@H](N3CCN(c4cc(F)cnc4-c4ccc(=O)[nH]c4)CC3)C2)C1 [Compound A210]
–	–	–	–	19 to 49.9	> 10	80 to 100	–	CCOC(=O)N1CC2(CC[C@@H](N3CCN(c4cc(F)cnc4N4CCOCC4)CC3)C2)C1 [Compound A289]
